Test system: acid secretion in female rats
Assay: Inhibiting effect on acid secretion in female rats
Type: in vivo, rat (Sprague-Dawley
Conditions: rats administered 1 μmol/kg
Protocol: Inhibiting Effect on Acid Secretion in Female Rats
Female rats of the Sprague-Dawley strain were used. They were equipped with cannulated fistulae in the stomach (lumen) and the upper part of the duodenum, for collection of gastric secretions and administration of test substances, respectively. A recovery period of 14 days after surgery was allowed before testing commenced.
Before secretory tests, the animals were deprived of food but not water for 20 h. The stomach was repeatedly washed through the gastric cannula with tap water (+37° C.), and 6 ml Ringer-Glucose given subcutaneously. […] Gastric juice samples were titrated to pH 7.0 with NaOH, 0.1M, and acid output calculated as the product of titrant volume and concentration.
Further calculations were based on group mean responses from 4-6 rats. In the case of administration during stimulation, the acid output during the periods after administration of test substance or vehicle were expressed as fractional responses, setting the acid output in the 30-min period preceding administration to 1.0. Percentage inhibition was calculated from the fractional responses elicited by test compound and vehicle. In the case of administration before stimulation, percentage inhibition was calculated directly from acid output recorded after test compound and vehicle. […]

SMILES | maximal inhibition of acid secretion
Cc1cccc(C)c1CNc1cc(C(=O)NCCOC(=O)CCCC(=O)O)cn2c(C)c(C)nc12 [Example 1, 5-{2-[({8-[(2,6-dimethylbenzyl)amino]-2,3-dimethylimidazo[1,2-a]pyridin-6-yl}carbonyl)amino]ethoxy}-5-oxopentanoic acid] | 100%
Cc1cccc(C)c1CNc1cc(C(=O)NCCOC(=O)CCC(=O)O)cn2c(C)c(C)nc12 [Example 2, 4-{2-[({8-[(2,6-dimethylbenzyl)amino]-2,3-dimethylimidazo[1,2-a]pyridin-6-yl}carbonyl)amino]ethoxy}-4-oxobutanoic acid] | 70%
